Laboratory results from patent publication US9765057B2, “3-ester-4 substituted orexin receptor antagonists” (MERCK SHARP & DOHME CORP., priority 2012, dated 2017).

Columns and labels:
[1] = target: human orexin-2 receptor (Homo sapiens (Human), UniProt O43614); assay: FLIPR Ca2+ Flux Assay, hOX2R; type: cell-based; conditions: CHO cells expressing the human orexin-2 receptor; agonist 70 pM Ala-6,12 orexin-A
Description: In a typical experiment the OX1 and OX2 receptor antagonistic activity of the compounds of the present invention was determined in accordance with the following experimental method. For intracellular calcium measurements, Chinese hamster ovary (CHO) cells expressing the rat orexin-1 receptor or the human orexin-2 receptor, are grown in Iscove's modified DMEM containing 2 mM L-glutamine, […], 1% hypoxanthine-thymidine supplement, 100 U/ml penicillin, 100 μg/ml streptomycin and 10% heat-inactivated fetal calf serum (FCS). The cells are seeded at 20,000 cells/well into Becton-Dickinson black 384-well clear bottom sterile plates coated with poly-D-lysine. All reagents were from GIBCO-Invitrogen Corp. The seeded plates are incubated overnight at 37° C. and 5% CO2. Ala-6,12 human orexin-A as the agonist is prepared as a 1 mM stock solution in 1% bovine serum albumin (BSA) and diluted in assay buffer (HBSS containing 20 mM HEPES, 0.1% BSA and 2.5 mM probenecid, pH7.4) for use in the assay at a final concentration of 70 pM. Test compounds are prepared as 10 mM stock solution in DMSO, then diluted in 384-well plates, first in DMSO, then assay buffer. On the day of the assay, cells are washed 3 times with 100 μl assay buffer and then incubated for 60 min (37° C., 5% CO2) in 60 μl assay buffer containing 1 μM Fluo-4AM ester, 0.02% pluronic acid, and 1% BSA. The dye loading solution is then aspirated and cells are washed 3 times with 100 μl assay buffer. 30 μl of that same buffer is left in each well. Within the Fluorescent Imaging Plate Reader (FLIPR, Molecular Devices), test compounds are added to the plate in a volume of 25 μl, incubated for 5 min and finally 25 μl of agonist is added. Fluorescence is measured for each well at 1 second intervals for 5 minutes and the height of each fluorescence peak is compared to the height of the fluorescence peak induced by 70 pM Ala-6,12 orexin-A with buffer in place of antagonist. For each antagonist, IC50 value (the concentration of compound needed to inhibit 50% of the agonist response) is determined Alternatively, compound potency can be assessed by a radioligand binding assay (described in Bergman et. al. Bioorg. Med. Chem. Lett. 2008, 18, 1425-1430) in which the inhibition constant (Ki) is determined in membranes prepared from CHO cells expressing either the OX1 or OX2 receptor. The intrinsic orexin receptor antagonist activity of a compound which may be used in the present invention may be determined by these assays.

[2] = target: hOX1R (Homo sapiens, UniProt O43613); assay: FLIPR Ca2+ Flux Assay, hOX1R; type: cell-based; conditions: CHO cells expressing orexin-1 receptor; agonist 70 pM Ala-6,12 orexin-A

human orexin-2 receptor, sequence (O43614 whole entry): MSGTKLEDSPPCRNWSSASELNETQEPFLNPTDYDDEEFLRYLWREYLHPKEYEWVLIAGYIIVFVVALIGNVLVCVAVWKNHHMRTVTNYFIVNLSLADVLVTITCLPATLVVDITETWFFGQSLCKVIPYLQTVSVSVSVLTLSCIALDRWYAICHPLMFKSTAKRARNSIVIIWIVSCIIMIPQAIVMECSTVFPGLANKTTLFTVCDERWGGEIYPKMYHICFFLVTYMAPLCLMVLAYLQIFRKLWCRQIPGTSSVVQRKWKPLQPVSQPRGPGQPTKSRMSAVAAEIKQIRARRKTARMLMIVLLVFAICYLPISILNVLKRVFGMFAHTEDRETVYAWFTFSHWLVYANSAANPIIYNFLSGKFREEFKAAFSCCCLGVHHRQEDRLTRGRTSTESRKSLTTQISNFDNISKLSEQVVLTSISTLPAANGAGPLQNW

SMILES | IC50 [1] [nM] | IC50 [2] [nM]
COC(=O)c1c(O[C@@H]2CC[C@@H](C)N(C(=O)c3ccccc3-n3nccn3)C2)cccc1C(C)C [Example 16, methyl 2-(1-methylethyl)-6-{[(3R,6R)-6-methyl-1-{[2-(2H-1,2,3-triazol-2-yl)phenyl]carbonyl}-piperidin-3-yl]oxy}benzoate] | 68.8 | 1460
COC(=O)c1c(C2CCC2)ccnc1O[C@@H]1CC[C@@H](C)N(C(=O)c2ccccc2-n2nccn2)C1 [Example 14, methyl 4-cyclobutyl-2-{[(3R,6R)-6-methyl-1-{[2-(2H-1,2,3-triazol-2-yl)phenyl]carbonyl}piperidin-3-yl]oxy}pyridine-3-carboxylate] | 272 | 5580
COC(=O)c1c(C(C)(C)C)ccnc1O[C@@H]1CC[C@@H](C)N(C(=O)c2ccccc2-n2nccn2)C1 [Example 11] | 1010 | 2050
COC(=O)c1c(N2CCN(C)CC2)ccnc1O[C@@H]1CC[C@@H](C)N(C(=O)c2ccccc2-n2nccn2)C1 [Example 9, methyl 4-(4-methylpiperazin-1-yl)-2-{[(3R,6R)-6-methyl-1-{[2-(2H-1,2,3-triazol-2-yl)phenyl]carbonyl}-piperidin-3-yl]oxy}pyridine-3-carboxylate] | 1530 | 10000
CCOC(=O)c1c(CC)ccnc1O[C@@H]1CC[C@@H](C)N(C(=O)c2ccccc2-n2nccn2)C1 [Example 17, Ethyl 4-ethyl-2-{[(3R,6R)-6-methyl-1-{[2-(2H-1,2,3-triazol-2-yl)phenyl]carbonyl}piperidin-3-yl]oxy}pyridine-3-carboxylate] | 40.4 | 172
COC(=O)c1c(N2CCC2)ccnc1O[C@@H]1CC[C@@H](C)N(C(=O)c2ccccc2-n2nccn2)C1 [Example 8, Methyl 4-azetidin-1-yl-2-{[(3R,6R)-6-methyl-1-{[2-(2H-1,2,3-triazol-2-yl)phenyl]carbonyl}piperidin-3-yl]oxy}pyridine-3-carboxylate] | 33 | 743
COC(=O)c1c(SC)ccnc1O[C@@H]1CC[C@@H](C)N(C(=O)c2ccccc2-n2nccn2)C1 [Example 3, methyl 4-(methylsulfanyl)-2-{[(3R,6R)-6-methyl-1-{[2-(2H-1,2,3-triazol-2-yl)phenyl]carbonyl}-piperidin-3-yl]oxy}pyridine-3-carboxylate] | 10 | 618
COC(=O)c1c(C(C)C)ccnc1O[C@@H]1CC[C@@H](C)N(C(=O)c2ccccc2-n2nccn2)C1 [Example 12, methyl 4-(1-methylethyl)-2-{[(3R,6R)-6-methyl-1-{[2-(2H-1,2,3-triazol-2-yl)phenyl]carbonyl}-piperidin-3-yl]oxy}pyridine-3-carboxylate] | 5.46 | 80
CCc1ccnc(O[C@@H]2CC[C@@H](C)N(C(=O)c3ccccc3-n3nccn3)C2)c1C(=O)OC [Example 10, Methyl 4-ethyl-2-{[(3R,6R)-6-methyl-1-{[2-(2H-1,2,3-triazol-2-yl)phenyl]carbonyl}piperidin-3-yl]oxy}pyridine-3-carboxylate] | 21.1 | 74.9
COC(=O)c1c(SC)ccnc1O[C@@H]1CC[C@@H](C)N(C(=O)c2ccc(F)cc2-c2ncccn2)C1 [Example 6, methyl 2-({(3R,6R)-1-[(4-fluoro-2-pyrimidin-2-ylphenyl)carbonyl]-6-methylpiperidin-3-yl}oxy)-4-(methylsulfanyl)pyridine-3-carboxylate] | 31.6 | 888
COC(=O)c1c(C2CC2)ccnc1O[C@@H]1CC[C@@H](C)N(C(=O)c2ccccc2-n2nccn2)C1 [Example 13, methyl 4-cyclopropyl-2-{[(3R,6R)-6-methyl-1-{[2-(2H-1,2,3-triazol-2-yl)phenyl]carbonyl}piperidin-3-yl]oxy}pyridine-3-carboxylate] | 530 | 803
COC(=O)c1c(C)cccc1O[C@@H]1CC[C@@H](C)N(C(=O)c2ccccc2-n2nccn2)C1 [Example 15, methyl 2-methyl-6-{[(3R,6R)-6-methyl-1-{[2-(2H-1,2,3-triazol-2-yl)phenyl]carbonyl}piperidin-3-yl]oxy}benzoate] | 36.2 | 1930
COC(=O)c1c(SC)ccnc1O[C@@H]1CC[C@@H](C)N(C(=O)c2ccccc2-c2ncccn2)C1 [Example 4, Methyl 2-({(3R,6R)-6-methyl-1-{(2-pyrimidin-2ylphenyl)carbonyl}piperidin-3yl}oxy)-4-(methylsulfanyl)pyridine-3-carboxylate] | 28.3 | 554
COC(=O)c1c(C)ccnc1O[C@@H]1CC[C@@H](C)N(C(=O)c2ccccc2-n2nccn2)C1 [Example 2, methyl 4-methy1-2-{[(3R,6R)-6-methyl-1-{[2-(2H-1,2,3-triazol-2-yl)phenyl]carbonyl}piperidin-3-yl]oxy}pyridine-3-carboxylate] | 17.4 | 86.2
COC(=O)c1c(SC)ccnc1O[C@@H]1CC[C@@H](C)N(C(=O)c2cc(F)ccc2-c2ncccn2)C1 [Example 5, methyl 2-({(3R,6R)-1-[(5-fluoro-2-pyrimidin-2-ylphenyl)carbonyl]-6-methylpiperidin-3-yl}oxy)-4-(methylsulfanyl)pyridine-3-carboxylate] | 72.9 | 880
CCOC(=O)c1c(C)ccnc1O[C@@H]1CC[C@@H](C)N(C(=O)c2ccccc2-n2nccn2)C1 [Example 1, Ethyl 4-methyl-2-{[(3R,6R)-6-methyl-1-{[2-(2H-1,2,3-triazol-2-yl)phenyl]carbonyl}piperidin-3-yl]oxy}pyridine-3-carboxylate] | 8.3 | 79
COC(=O)c1c(SC)ccnc1O[C@@H]1CC[C@@H](C)N(C(=O)c2cccc(F)c2-c2ncccn2)C1 [Example 7, methyl 2-({(3R,6R)-1-[(3-fluoro-2-pyrimidin-2-ylphenyl)carbonyl]-6-methylpiperidin-3-yl}oxy)-4-(methylsulfanyl)pyridine-3-carboxylate] | 37.8 | 1030
